In one assay the target is HRAS wild-type protein (Homo sapiens, UniProt P01112). Nature of the assay: Binding to HRAS by surface plasmon resonance (SPR), KD and KD ratio to KRAS. To be noted: ratio of KD value for HRAS wild-type protein to KD value for KRAS (SPR). A digest of the protocol:
(§1)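 Each cycle, GDP-bound biotin-Avi RAS was captured (~100–300 RU), compound concentrations were injected low to high for 75 s each at 100 µL/min, then the chip was regenerated. Buffer: HBS pH 7.4, 10 mM MgCl2, 10 µM GDP, 1 mM DTT, 4% DMSO; 30°C. KD from a 1:1 binding model.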

In assay [1] the target is GDP-bound NRAS wild-type protein (Homo sapiens, UniProt P01111). Nature of the assay: Binding to NRAS by surface plasmon resonance (SPR), KD and KD ratio to KRAS. To be noted: ratio of KD value for GDP-bound NRAS wild-type protein to KD value for KRAS (SPR). Summed up: as §1
GDP-bound NRAS wild-type protein, sequence (P01111 whole entry): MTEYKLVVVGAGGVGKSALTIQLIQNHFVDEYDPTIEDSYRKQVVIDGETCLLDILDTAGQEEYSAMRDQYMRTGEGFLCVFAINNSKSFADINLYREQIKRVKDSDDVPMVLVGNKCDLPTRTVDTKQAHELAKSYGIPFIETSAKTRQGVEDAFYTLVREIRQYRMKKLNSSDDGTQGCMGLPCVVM
Assay [2] has as its system human lung cancer strain NCI-H441. The assay is classed as cell-based. Summed up: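 Signal came from […] measured per well once the reagent was added. Beforehand, cells were cultured at 37°C and 5% carbon dioxide on a compound series serially diluted in dimethyl sulfoxide.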

HRAS wild-type protein, sequence (P01112 whole entry): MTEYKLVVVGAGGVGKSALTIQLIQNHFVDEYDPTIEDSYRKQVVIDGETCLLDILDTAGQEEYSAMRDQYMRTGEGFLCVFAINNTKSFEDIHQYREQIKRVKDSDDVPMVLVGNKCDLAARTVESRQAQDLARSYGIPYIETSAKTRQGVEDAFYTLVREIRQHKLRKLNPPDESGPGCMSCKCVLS

For the compound `CC[C@H](C)[C@@H]1NC(=O)[C@H](CC2CC2)N(C)C(=O)C[C@@H](C(=O)N(C)C)N(C)C(=O)[C@H](C2CCCC2)N(C)C(=O)C2(CCC2)NC(=O)[C@@H]2[C@@H](OCC(F)F)CCN2C(=O)[C@H](CCc2cc(F)c(C(F)(F)F)c(F)c2)NC(=O)CN(C)C(=O)[C@H](Cc2ccc(C(F)(F)F)cc2)N2CC/C=C\C[C@@H](C2=O)N(C)C(=O)CN(C)C1=O` [PP1533], the “HRAS /KRAS” value on HRAS wild-type protein was “A (a compound having 10 or more and less than 20 is denoted as A)”. In assay [1], the “NRAS /KRAS” value is “AA (a compound having 20 or more is denoted as AA)”. The compound further showed a concentration for half-maximal inhibition (IC50) in assay [2] of 23.8 nM.
For `CC[C@H](C)[C@@H]1NC(=O)[C@H](CC(C)C)N(C)C(=O)C[C@@H](C(=O)N(C)C)N(C)C(=O)[C@H](C2CCCC2)N(C)C(=O)C2(CCC2)NC(=O)[C@@H]2[C@@H](OCC(F)F)CCN2C(=O)[C@H](CCc2cc(F)c(C(F)(F)F)c(F)c2)NC(=O)CN(C)C(=O)[C@H](Cc2ccc(C(F)(F)F)cc2)N2CC/C=C\C[C@@H](C2=O)N(C)C(=O)CN(C)C1=O` [PP1534], the “HRAS /KRAS” value on HRAS wild-type protein is “A (a compound having 10 or more and less than 20 is denoted as A)”. The “NRAS /KRAS” value in assay [1] is given as “AA (a compound having 20 or more is denoted as AA)”. This compound also came in with a half-inhibitory concentration (IC50) in assay [2] of 24.7 nM.
For `CC[C@H](C)[C@@H]1NC(=O)[C@H](CC2CCCC2)N(C)C(=O)C[C@@H](C(=O)N(C)C)N(C)C(=O)[C@@H](C2CCCC2)N(C)C(=O)C2(CCC2)NC(=O)[C@@H]2[C@@H](OCC(F)F)CCN2C(=O)[C@@H](CCc2cc(F)c(C(F)(F)F)c(F)c2)NC(=O)CN(C)C(=O)[C@@H](Cc2ccc(C)cc2)N2CC/C=C\C[C@H](C2=O)N(C)C(=O)CN(C)C1=O` [PP1536], on HRAS wild-type protein, the “HRAS /KRAS” value is “B (a compound having 3 or more and less than 10 is denoted as B)”. Further, in assay [1], the “NRAS /KRAS” value is “A (a compound having 10 or more and less than 20 is denoted as A)”. This compound also showed a half-inhibitory concentration (IC50) in assay [2] of 24.8 nM.
For `CC[C@H](C)[C@@H]1NC(=O)[C@H](CC2CC2)N(C)C(=O)C[C@@H](C(=O)N(C)CC)N(C)C(=O)[C@H](C2CCCC2)N(C)C(=O)C2(CCC2)NC(=O)[C@@H]2C[C@H](C)CN2C(=O)[C@H](CCc2cc(F)c(C(F)(F)F)c(F)c2)NC(=O)CN(C)C(=O)[C@H](Cc2ccc(C(F)(F)F)cc2)N2CC/C=C\C[C@@H](C2=O)N(C)C(=O)CN(C)C1=O` [PP1537], the “HRAS /KRAS” value on HRAS wild-type protein is “A (a compound having 10 or more and less than 20 is denoted as A)”. Further, the “NRAS /KRAS” value in assay [1] was “AA (a compound having 20 or more is denoted as AA)”. The 50% inhibitory concentration (IC50) in assay [2] is 7.9 nM.
With `CC[C@H](C)[C@@H]1NC(=O)[C@H](CC2CC2)N(C)C(=O)C[C@@H](C(=O)N(C)CC)N(C)C(=O)[C@H](C2CCCC2)N(C)C(=O)C2(CCC2)NC(=O)[C@@H]2CC(F)(F)CN2C(=O)[C@H](CCc2cc(F)c(C(F)(F)F)c(F)c2)NC(=O)CN(C)C(=O)[C@H](Cc2ccc(C(F)(F)F)cc2)N2CC/C=C\C[C@@H](C2=O)N(C)C(=O)CN(C)C1=O` [PP1538], at HRAS wild-type protein, the “HRAS /KRAS” value was “B (a compound having 3 or more and less than 10 is denoted as B)”. The “NRAS /KRAS” value in assay [1] was “A (a compound having 10 or more and less than 20 is denoted as A)”. Moreover, the half-inhibitory concentration (IC50) in assay [2] is 7.5 nM.
On to `CCO[C@@H]1C[C@H]2C(=O)NC3(CCC3)C(=O)N(C)[C@@H](C3CCCC3)C(=O)N(C)[C@H](C(=O)N(C)CC)CC(=O)N(C)[C@@H](CC)C(=O)N[C@@H]([C@@H](C)CC)C(=O)N(C)CC(=O)N(C)[C@H]3C/C=C\CCN(C3=O)[C@@H](CC3CCCCC3)C(=O)N(C)CC(=O)N[C@@H](CCc3cc(F)c(C(F)(F)F)c(F)c3)C(=O)N2C1` [PP1552], for which the “HRAS /KRAS” value at HRAS wild-type protein was “A (a compound having 10 or more and less than 20 is denoted as A)”. Moreover, in assay [1], the “NRAS /KRAS” value was “A (a compound having 10 or more and less than 20 is denoted as A)”. Also, in assay [2], it took 15.9 nM to reach half-maximal inhibition (IC50).

Source of the values: EP4603105A1, “PHARMACEUTICAL COMPOSITION CONTAINING CYCLIC COMPOUND HAVING SELECTIVE KRAS INHIBITORY EFFECT AGAINST HRAS AND NRAS” (CHUGAI SEIYAKU KABUSHIKI KAISHA, priority 2022, dated 2024).
